Reference: patent publication US20250346585A1 (Alexion Pharmaceuticals, Inc., priority 2022, published 2025)
Like-named read-outs stand apart in the source and are kept apart here.

Target: Human complement C1s enzyme (Homo sapiens (Human), UniProt P09871)
Experiment: Human C1s enzyme assay
Format: biochemical
Details: read-out: IC50 (Stars)
In short: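 IC50 derived by nonlinear regression of rate versus concentration, with rate taken from A405 kinetics (30 s intervals, 30 min) after adding 100 μM each Z-L-Lys-SBzl and DTNB. C1s from human serum, 1.16 nM, exposed to compound for 5 min at RT beforehand; buffer 50 mM Tris, 1 M NaCl, pH 7.5.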

[1] = Human complement C1s enzyme 1.16 nM, substrate Z-L-Lys-SBzl 100 μM, assay of Example 3
[2] = Human C1s enzyme assay of Example 3

Chain of Human complement C1s enzyme (P09871 438-688 limits assumed): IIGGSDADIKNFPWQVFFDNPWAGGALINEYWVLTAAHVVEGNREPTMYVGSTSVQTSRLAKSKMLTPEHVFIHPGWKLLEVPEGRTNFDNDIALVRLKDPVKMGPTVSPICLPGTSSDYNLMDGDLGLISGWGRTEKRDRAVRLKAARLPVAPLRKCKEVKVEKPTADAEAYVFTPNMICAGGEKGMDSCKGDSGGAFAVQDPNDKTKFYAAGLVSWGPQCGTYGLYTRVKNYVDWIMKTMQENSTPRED
Chain of Human complement C1s enzyme (P09871 16-437 partner limits assumed): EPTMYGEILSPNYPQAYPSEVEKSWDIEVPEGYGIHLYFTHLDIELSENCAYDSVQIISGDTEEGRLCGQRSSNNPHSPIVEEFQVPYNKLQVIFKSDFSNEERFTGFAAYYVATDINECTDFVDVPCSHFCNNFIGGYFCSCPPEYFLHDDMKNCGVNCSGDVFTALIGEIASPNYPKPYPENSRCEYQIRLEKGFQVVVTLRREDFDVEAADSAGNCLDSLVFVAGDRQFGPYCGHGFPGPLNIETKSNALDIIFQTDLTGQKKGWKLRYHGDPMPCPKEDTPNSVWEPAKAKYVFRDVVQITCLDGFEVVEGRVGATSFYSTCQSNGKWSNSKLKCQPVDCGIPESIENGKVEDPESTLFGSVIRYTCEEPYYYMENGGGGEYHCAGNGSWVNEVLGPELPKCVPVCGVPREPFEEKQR

SMILES	IC50 [1] [nM]	IC50 [2] [nM]	further results
C[C@@H](NC(=O)[C@@H]1C[C@]2(COCCCCN)C[C@@H]2N1C(=O)CNC(=O)c1ccc2c(c1)-c1ccccc1C2(F)F)c1cc(C(=N)N)cs1 [Compound 414, (1S,3S,5R)-5-((4-aminobutoxy)methyl)-N—((R)-1-(4-carbamimidoylthiophen-2-yl)ethyl)-2-((9,9-difluoro-9H-fluorene-3-carbonyl)glycyl)-2-azabicyclo[3.1.0]hexane-3-carboxamide]	–	–	IC50 (Human complement C1s enzyme 1.16 nM, substrate Z-L-Lys-SBzl, assay of Example 3): < 100 nM
C[C@@H](NC(=O)[C@@H]1C[C@@H](S(=O)(=O)C2CC2)CN1C(=O)CNC(=O)c1ccc2c(c1)-c1ccccc1C2(F)F)c1cc(C(=N)N)cs1 [Compound 351, (2S,4R)—N—((R)-1-(4-carbamimidoylthiophen-2-yl)ethyl)-4-(cyclopropylsulfonyl)-1-((9,9-difluoro-9H-fluorene-3-carbonyl)glycyl)pyrrolidine-2-carboxamide]	< 100	–	–
Cc1ccc(Oc2ccc(C(=O)NCC(=O)N3[C@H]4C[C@@]4(C)C[C@H]3C(=O)N[C@H](C)c3cc(C(=N)N)cs3)cc2C)cc1 [Compound 25, (1S,3S,5S)—N—((R)-1-(4-carbamimidoylthiophen-2-yl)ethyl)-5-methyl-2-((3-methyl-4-(p-tolyloxy)benzoyl)glycyl)-2-azabicyclo[3.1.]hexane-3-carboxamide]	–	< 100	–
C[C@@H](NC(=O)[C@@H]1CC2(CN1C(=O)CNC(=O)c1ccc3c(c1)Sc1ccccc1O3)OCCO2)c1cc(C(=N)N)cs1 [Compound 312, (S)—N—((R)-1-(4-carbamimidoylthiophen-2-yl)ethyl)-7-((phenoxathiine-2-carbonyl)glycyl)-1,4-dioxa-7-azaspiro[4.4]nonane-8-carboxamide]	< 100	–	–
CO[C@@H]1C[C@@H](C(=O)NCc2cc(-c3c[nH]c([N+](=O)[O-])n3)cs2)N(C(=O)CNC(=O)c2ccc(Oc3ccc(F)cc3)cc2)C1 [Compound 156, (2S,4R)-1-((4-(4-fluorophenoxy)benzoyl)glycyl)-4-methoxy-N-((4-(2-nitro-1H-imidazol-4-yl)thiophen-2-yl)methyl)pyrrolidine-2-carboxamide]	–	> 1000	–
CCCCCCOC(=O)/N=C(/N)c1csc([C@@H](C)NC(=O)[C@@H]2C[C@@H](OC(F)F)CN2C(=O)CNC(=O)c2ccc3c(c2)-c2ccccc2C3(F)F)c1 [Compound 258, hexyl ((E)-amino(5-((R)-1-((2S,4R)-1-((9,9-difluoro-9H-fluorene-3-carbonyl)glycyl)-4-(difluoromethoxy)pyrrolidine-2-carboxamido)ethyl)thiophen-3-yl)methylene)carbamate]	< 100	–	–
C[C@@H](NC(=O)[C@@H]1C[C@](F)(COCCNC(=O)CC[C@H](NC(=O)CCCCCCCCCCCCCCCCC(=O)O)C(=O)O)CN1C(=O)CNC(=O)c1ccc(Oc2ccc(F)cc2)cc1)c1cc(C(=N)N)cs1 [Compound 106, 18-(((S)-4-((2-(((3R,5S)-5-(((R)-1-(4-carbamimidoylthiophen-2-yl)ethyl)carbamoyl)-3-fluoro-1-((4-(4-fluorophenoxy)benzoyl)glycyl)pyrrolidin-3-yl)methoxy)ethyl)amino)-1-carboxy-4-oxobutyl)amino)-18-oxooctadecanoic acid]	–	< 100	–
CC(=O)Nc1csc(CNC(=O)[C@@H]2CC3(CN2C(=O)CNC(=O)c2ccc(Oc4ccc(F)cc4)cc2)OCCO3)c1 [Compound 288, (S)-N-((4-acetamidothiophen-2-yl)methyl)-7-((4-(4-fluorophenoxy)benzoyl)glycyl)-1,4-dioxa-7-azaspiro[4.4]nonane-8-carboxamide]	> 1000	–	–
C[C@@H](NC(=O)[C@@H]1CC2(CN1C(=O)Cc1ccc(-c3ccccc3)cc1)OCCO2)c1cc(C(=N)N)cs1 [Compound 338, (S)-7-(2-([1,1′-biphenyl]-4-yl)acetyl)-N—((R)-1-(4-carbamimidoylthiophen-2-yl)ethyl)-1,4-dioxa-7-azaspiro[4.4]nonane-8-carboxamide]	< 100	–	–
CO[C@@H]1C[C@@H](C(=O)NCc2cc(NC(=O)CNC(=O)c3ccc(Oc4ccc(F)cc4)cc3)cs2)N(C(=O)CNC(=O)c2ccc(Oc3ccc(F)cc3)cc2)C1 [Compound 243, (2S,4R)-N-((4-(2-(4-(4-fluorophenoxy)benzamido)acetamido)thiophen-2-yl)methyl)-1-((4-(4-fluorophenoxy)benzoyl)glycyl)-4-methoxypyrrolidine-2-carboxamide]	> 1000	–	–
C[C@@H](NC(=O)[C@@H]1C[C@](F)(CF)CN1C(=O)CNC(=O)c1ccc2[nH]c3ccccc3c2c1)c1cc(C(=N)N)cs1 [Compound 341, N-(2-((2S,4R)-2-(((R)-1-(4-carbamimidoylthiophen-2-yl)ethyl)carbamoyl)-4-fluoro-4-(fluoromethyl)pyrrolidin-1-yl)-2-oxoethyl)-9H-carbazole-3-carboxamide]	< 100	–	–
COC[C@@]1(F)C[C@@H](C(=O)N[C@H](C)c2cc(C(=N)N)cs2)N(C(=O)CNC(=O)c2cccc(-c3ccc(F)cc3)c2)C1 [Compound 364, (2S,4R)—N—((R)-1-(4-carbamimidoylthiophen-2-yl)ethyl)-4-fluoro-1-((4′-fluoro-[1,1′-biphenyl]-3-carbonyl)glycyl)-4-(methoxymethyl)pyrrolidine-2-carboxamide]	< 100	–	–
N=C(N)c1csc(CNC(=O)[C@@H]2C[C@](F)(CF)CN2C(=O)CNC(=O)c2ccc3c(c2)-c2ccccc2C3(F)F)c1 [Compound 52, (2S,4R)—N-((4-carbamimidoylthiophen-2-yl)methyl)-1-((9,9-difluoro-9H-fluorene-3-carbonyl)glycyl)-4-fluoro-4-(fluoromethyl)pyrrolidine-2-carboxamide]	–	< 100	–
C[C@@H](NC(=O)[C@@H]1C[C@@H](CO)CN1C(=O)CNC(=O)c1ccc2c(c1)-c1ccccc1C2(F)F)c1cc(C(=N)N)cs1 (relative stereo) [Compound 305, (2S,4R*)—N—((R)-1-(4-carbamimidoylthiophen-2-yl)ethyl)-1-((9,9-difluoro-9H-fluorene-3-carbonyl)glycyl)-4-(hydroxymethyl)pyrrolidine-2-carboxamide]	< 100	–	–
C[C@@H](NC(=O)[C@@H]1CC2(CN1C(=O)CN1Cc3ccc(-c4ccc(F)cc4F)cc3C1=O)OCCO2)c1cc(C(=N)N)cs1 [Compound 346, (S)—N—((R)-1-(4-carbamimidoylthiophen-2-yl)ethyl)-7-(2-(6-(2,4-difluorophenyl)-1-oxoisoindolin-2-yl)acetyl)-1,4-dioxa-7-azaspiro[4.4]nonane-8-carboxamide]	< 100	–	–

Continued, in another order:

IC50 [1] [nM]	IC50 [2] [nM]	SMILES	further results
< 100	–	C[C@@H](NC(=O)[C@@H]1C[C@](F)(CF)CN1C(=O)CNC(=O)c1ccc2c(c1)oc1ccccc12)c1cc(C(=N)N)cs1 [Compound 372, (2S,4R)—N—((R)-1-(4-carbamimidoylthiophen-2-yl)ethyl)-1-((dibenzo[b,d]furan-3-carbonyl)glycyl)-4-fluoro-4-(fluoromethyl)pyrrolidine-2-carboxamide]	–
< 100	–	C[C@@H](NC(=O)[C@@H]1C[C@@H](S(C)(=O)=O)CN1C(=O)CNC(=O)c1ccc2c(c1)-c1ccccc1C2OC(F)F)c1cc(C(=N)N)cs1 (stereo partly drawn) [Compound 392, (2S,4R)—N—((R)-1-(4-carbamimidoylthiophen-2-yl)ethyl)-1-((9-(difluoromethoxy)-9H-fluorene-3-carbonyl)glycyl)-4-(methylsulfonyl)pyrrolidine-2-carboxamide]	–
> 1000	–	NC(=O)Nc1csc(CNC(=O)[C@@H]2CC3(CN2C(=O)CNC(=O)c2ccc(Oc4ccc(F)cc4)cc2)OCCO3)c1 [Compound 317, (S)-7-((4-(4-fluorophenoxy)benzoyl)glycyl)-N-((4-ureidothiophen-2-yl)methyl)-1,4-dioxa-7-azaspiro[4.4]nonane-8-carboxamide]	–
< 100	–	C[C@@H](NC(=O)[C@@H]1C[C@@H](S(C)(=O)=O)CN1C(=O)CNC(=O)c1ccc2c(c1)C(F)(F)c1ccccc1-2)c1cc(C(=N)N)cs1 [Compound 265, (2S,4R)—N—((R)-1-(4-carbamimidoylthiophen-2-yl)ethyl)-1-((9,9-difluoro-9H-fluorene-2-carbonyl)glycyl)-4-(methylsulfonyl)pyrrolidine-2-carboxamide]	–
–	< 100	N=C(N)c1csc(CNC(=O)[C@@H]2CC3(CN2C(=O)CNC(=O)c2ccc(-c4ccsc4)cc2)OCCO3)c1 [Compound 165, (S)-N-((4-carbamimidoylthiophen-2-yl)methyl)-7-((4-(thiophen-3-yl)benzoyl)glycyl)-1,4-dioxa-7-azaspiro[4.4]nonane-8-carboxamide]	–
–	< 100	COC[C@@H]1C[C@@H](C(=O)N[C@H](C)c2cc(C(=N)N)cs2)N(C(=O)CNC(=O)c2ccc3c(c2)-c2ccccc2C3(F)F)C1 (relative stereo) [Compound 118, (2S,4R*)—N—((R)-1-(4-carbamimidoylthiophen-2-yl)ethyl)-1-((9,9-difluoro-9H-fluorene-3-carbonyl)glycyl)-4-(methoxymethyl)pyrrolidine-2-carboxamide]	–
< 100	–	COC[C@@]1(F)C[C@@H](C(=O)N[C@H](C)c2cc(C(=N)N)cs2)N(C(=O)CNC(=O)c2ccc3oc4ccccc4c3c2)C1 [Compound 222, (2S,4R)—N—((R)-1-(4-carbamimidoylthiophen-2-yl)ethyl)-1-((dibenzo[b,d]furan-2-carbonyl)glycyl)-4-fluoro-4-(methoxymethyl)pyrrolidine-2-carboxamide]	–
–	< 100	C[C@@H](NC(=O)[C@@H]1C[C@](F)(COCCCCCCCCCC(=O)O)CN1C(=O)CNC(=O)c1ccc2c(c1)-c1ccccc1C2(F)F)c1cc(C(=N)N)cs1 [Compound 194, 10-(((3R,5S)-5-(((R)-1-(4-carbamimidoylthiophen-2-yl)ethyl)carbamoyl)-1-((9,9-difluoro-9H-fluorene-3-carbonyl)glycyl)-3-fluoropyrrolidin-3-yl)methoxy)decanoic acid]	–
